Experimental data from patent US20060167076A1, “Acutumine and acutumine compounds synthesis and use” (priority 2002, published 2006).

Assays:
[1] = tested on: scopolamine-induced memory impairments; assay: Morris water maze test with scopolamine as amnesic agent; assay type: in vivo, mouse; conditions: 60 mg/kg p.o.; scopolamine 5 mg/kg i.p.; control animals 43 seconds
Excerpt: The anti-amnesic effects of the compounds of the present invention have been evaluated using the Morris water maze test (Morris et al., Nature, 1986, 319, 774-776) in the mouse and scopolamine as amnesic agent. Kumming strain mice (18-24 g, Shanghai Experimental Animal Centre) of either sex were used. Mice were placed on the water maze (80×50×20 cm) and trained to find the platform. Following the period of one day's habituation, each mouse received 3 daily training sessions for seven days. Mice were trained to a criterion of finding the platform within 20 seconds and with <2 errors of entering a dead-end. Once a mouse met the criterion, training was reduced to one daily session until all mice met the criterion. Trained mice were randomly assigned to sub-groups. Compounds under study were dissolved in distilled water and administered by the oral route 40 minutes before behavioural testing. Scopolamine (5 mg/kg, i.p.) was injected 30 minutes before the test. The number of errors and the time for reaching the platform were recorded. Data were expressed as means±s.e.m. Statistical analysis was performed using ANOVA followed by Duncan's multiple-range test.

[2] = tested on: animal experimental models; assay: Mnemocognition in animal experimental models (unspecified); assay type: in vivo
[3] = tested on: Wistar rat; assay: Social recognition in the Wistar rat; assay type: in vivo; conditions: 20 mg/kg; second encounter after 2 hours
Excerpt: Initially described in 1982 by THOR and HOLLOWAY (J. Comp. Physiol., 1982, 29 1000-1006), the social recognition test has subsequently been proposed by various authors (DANTZER et al., Psychopharmacology, 1987, 91, 363-368; PERIO et al., Psychopharmacology, 1989, 97, 262-268) for studying the mnemocognitive effects of new compounds. The test is based on the natural expression of the olfactory memory of the rat and its natural tendency to forget and allows evaluation of memorisation, by recognition of a young congeneric animal, by an adult rat. A young rat (21 days), taken at random, is placed for 5 minutes in the cage housing an adult rat. With the aid of a video device, the experimenter observes the social recognition behaviour of the adult rat and measures its overall duration. The young rat is then removed from the adult rat's cage and is placed in its own cage until the second introduction. The adult rat is given the compound under test and, after 2 hours, is again brought into the presence (5 minutes) of the young rat. The social recognition behaviour is then observed again and its duration measured. The assessment criterion is the difference (T2−T1), expressed in seconds, between the “recognition” times of the 2 encounters.

[4] = tested on: Wistar rat; assay: Object recognition in the Wistar rat; assay type: in vivo; conditions: 10 mg/kg; second session 24 hours later
Excerpt: The object recognition test in the Wistar rat was initially developed by ENNACEUR and DELACOUR (Behav. Brain Res., 1988, 31, 47-59). The test is based on the spontaneous exploratory activity of the animal and has the characteristics of episodic memory in humans. This memory test is sensitive to ageing (SCALI et al., Eur. J. Pharmacol., 1997, 325, 173-180) and to cholinergic dysfunctions (BARTOLINI et al., Pharm. Biochem. Behav. 1996, 53(2), 277-283) and is based on the differences in the exploration of 2 objects of fairly similar shape—one familiar, the other new. Prior to the test, the animals are habituated to the environment (an enclosure without an object). In the course of a first session, the rats are placed (3 minutes) in the enclosure, in which there are 2 identical objects. The duration of exploration is measured for each object. In the course of the second session (3 minutes), 24 hours later, 1 of the 2 objects is replaced by a new object. The duration of exploration is measured for each object. The assessment criterion is the difference, Delta, expressed in seconds, between the exploration times for the new object and for the familiar object in the course of the second session.

## CCC(=O)OC1C(OC)=CC(=O)[C@]12[C@@H](Cl)CC13C(OC)=C(OC)C(=O)CC12CCN3C (stereo partly drawn) [Example 1, Spiro[(4S,5S)-4-(ethoxycarbonyl)-3-methoxy-2-cyclopenten-1-one-5:3(2S)-2-chloro-3aS,7aS-((2,3)-1-methylpyrrolidine)-6,7-dimethoxy-1,2,3,3a,4,7a-hexahydro-5H-inden-5-one]]
[1]
  time for reaching the platform: ≤ 18 s

## COC1=CC(=O)C2(C1O)[C@@H](Cl)CC13C(OC)=C(OC)C(=O)CC21CCN3C (stereo partly shown) [acutumine]
[2]
  mnemocognition-facilitating properties: mnemocognition-facilitating properties

## Spiro[(4S,5S)-4-hydroxy-3-methoxy-2-cyclopenten-1-one-5:3(2S)-2-chloro-3aS,7aS-((2,3)-1-methylpyrrolidine)-6,7-dimethoxy-1,2,3,3a,4,7a-hexahydro-5H-inden-5-one oxime] [Example 4]
[3]
  difference (T2−T1) between recognition times of the 2 encounters: -45 s
[4]
  difference, Delta, between exploration times for the new and the familiar object: 8 s
